According to patent publication US11464770B2, “Anticancer pharmaceutical composition” (NATIONAL CANCER CENTER, priority 2016, dated 2022):
Where two headings read alike, the source gives them in different places.

Tests used:
[1] = system: bladder cancer cell lines; experiment: Cell based assay, cell viability (CellTiter-Glo), bladder cancer cell lines; settings: 72 hours treatment, 0 to 2 μM, CellTiter-Glo
Experimental: (§1) Commercially available bladder cancer, prostate cancer, lung cancer, breast cancer, blood cancer, pancreatic cancer, colorectal cancer, brain cancer, neuroblastoma, melanoma, liver cancer, cervical carcinoma, ovarian cancer, renal cancer, and papilloma cell lines were each treated with trypsin-EDTA and cultured, followed by being seeded in each well of a 96 well plate. After 24 hours of treatment at constant temperature, the respective cells were treated with the candidate compound so that a final concentration became 0 to 2 μM. The treated cells were additionally cultured for 72 hours, and cell viability was measured by using an ATP detection method (CellTiter-Glo® Luminescent Cell Viability Assay, Promega).

[2] = system: neuroblastoma cell lines; experiment: Cell based assay, cell viability (CellTiter-Glo), neuroblastoma cell lines; settings: Homo sapiens; SH-SY5Y cell line
Experimental: as §1

[3] = 253J cells, read-out: IC50, bladder cancer cell line 253J
[4] = 5637 cells, read-out: IC50, bladder cancer cell line 5637
[5] = Homo sapiens, T-24, T24 cells, read-out: IC50, bladder cancer cell line T24
[6] = Homo sapiens, UMUC3, UM-UC-3 cells, read-out: IC50, bladder cancer cell line UM-UC-3
[7] = Homo sapiens, J82 cells, read-out: IC50, bladder cancer cell line J82
[8] = Homo sapiens, KU-19-19 cells, read-out: IC50, bladder cancer cell line KU-19-19
[9] = MBT-2 cells, read-out: IC50, bladder cancer cell line MBT-2

| IC50 [1, 3] | IC50 [1, 4] | IC50 [1, 5] | IC50 [1, 6] | IC50 [1, 7] | IC50 [1, 8] | IC50 [1, 9] | IC50 [2] | SMILES |
| --- | --- | --- | --- | --- | --- | --- | --- | --- |
| 1.35 µM | 1.67 µM | 1.34 µM | 1.51 µM | > 2 µM | 1.94 µM | 1.19 µM | > 2 µM | CC(=O)c1c([S+](C)[O-])[nH]c2c(Br)ccc(Cl)c2c1=O (stereo not drawn) [Compound 1, 3-acetyl-8-bromo-5-chloro-2-(methylsulfinyl)quinolin-4(1H)-one] |
| > 2 µM | > 2 µM | > 2 µM | > 2 µM | > 2 µM | > 2 µM | > 2 µM | > 2 µM | CSc1[nH]c2c(Br)ccc(Cl)c2c(=O)c1C(C)=O [Compound 2, 3-acetyl-8-bromo-5-chloro-2-(methylthio)quinolin-4(1H)-one] |
| > 2 µM | > 2 µM | > 2 µM | > 2 µM | > 2 µM | > 2 µM | > 2 µM | > 2 µM | CC(=O)c1c(SCc2ccccc2)[nH]c2c(Br)ccc(Cl)c2c1=O [Compound 3, 3-acetyl-2-(benzylthio)-8-bromo-5-chloroquinolin-4(1H)-one] |
| > 2 µM | > 2 µM | > 2 µM | > 2 µM | > 2 µM | > 2 µM | > 2 µM | > 2 µM | CSc1c(C(C)=O)c(=O)c2c(Cl)ccc(Br)c2n1C [Compound 5, 3-acetyl-8-bromo-5-chloro-1-methyl-2-(methylthio)quinolin-4(1H)-one] |
| 1.22 µM | 1.69 µM | 1.42 µM | 1.46 µM | > 2 µM | > 2 µM | 1.44 µM | > 2 µM | CC(=O)c1c([S+](C)[O-])[nH]c2c(Cl)ccc(Cl)c2c1=O (stereo not drawn) [Compound 6, 3-acetyl-5,8-dichloro-2-(methylsulfinyl)quinolin-4(1H)-one] |
| > 2 µM | > 2 µM | > 2 µM | > 2 µM | > 2 µM | > 2 µM | > 2 µM | > 2 µM | CSc1c(C(C)=O)c(=O)c2cc(F)ccc2n1C [Compound 7, 3-acetyl-6-fluoro-1-methyl-2-(methylthio)quinolin-4(1H)-one] |
| > 2 µM | > 2 µM | > 2 µM | > 2 µM | > 2 µM | > 2 µM | > 2 µM | > 2 µM | CSc1[nH]c2ccc(F)cc2c(=O)c1C(C)=O [Compound 8, 1-(6-fluoro-4-hydroxy-2-(methylthio)quinolin-3-yl)ethan-1-one] |
| 1.1 µM | 1.63 µM | 1.16 µM | 1.18 µM | > 2 µM | 1.97 µM | 1.2 µM | > 2 µM | CC(=O)c1c([S+](C)[O-])n(C(=O)c2ccc(Br)cc2)c2c(Br)ccc(Cl)c2c1=O (stereo not drawn) [Compound 9, 3-acetyl-8-bromo-1-(4-bromobenzoyl)-5-chloro-2-(methylsulfinyl)quinolin-4(1H)-one] |
| > 2 µM | > 2 µM | > 2 µM | > 2 µM | > 2 µM | > 2 µM | > 2 µM | > 2 µM | CC(=O)c1c(SCc2ccc(Cl)cc2)[nH]c2c(Br)ccc(Cl)c2c1=O [Compound 10, 3-acetyl-8-bromo-5-chloro-2-((4-chlorobenzyl)thio)quinolin-4(1H)-one] |
| – | > 2 µM | 1.83 µM | – | > 2 µM | – | – | > 2 µM | CC(=O)c1c([S+]([O-])Cc2ccc(Cl)cc2)[nH]c2c(Br)ccc(Cl)c2c1=O (stereo not drawn) [Compound 11, 3-acetyl-8-bromo-5-chloro-2-((4-chlorobenzyl)sulfinyl)quinolin-4(1H)-one] |
| > 2 µM | > 2 µM | > 2 µM | > 2 µM | > 2 µM | > 2 µM | > 2 µM | > 2 µM | CC(=O)c1c(Sc2ccccc2)[nH]c2c(Br)ccc(Cl)c2c1=O [Compound 12, 3-acetyl-8-bromo-5-chloro-2-(phenylthio)quinolin-4(1H)-one] |
| > 2 µM | > 2 µM | > 2 µM | – | > 2 µM | – | – | > 2 µM | CC(=O)c1c([S+]([O-])c2ccccc2)[nH]c2c(Br)ccc(Cl)c2c1=O (stereo not drawn) [Compound 13, 3-acetyl-8-bromo-5-chloro-2-(phenylsulfinyl)quinolin-4(1H)-one] |
| > 2 µM | > 2 µM | > 2 µM | > 2 µM | > 2 µM | > 2 µM | > 2 µM | > 2 µM | COc1ccccc1Sc1[nH]c2c(Br)ccc(Cl)c2c(=O)c1C(C)=O [Compound 14, 3-acetyl-8-bromo-5-chloro-2-((2-methoxyphenyl)thio)quinolin-4(1H)-one] |
| > 2 µM | > 2 µM | > 2 µM | – | > 2 µM | – | – | > 2 µM | COc1ccccc1[S+]([O-])c1[nH]c2c(Br)ccc(Cl)c2c(=O)c1C(C)=O (stereo not drawn) [Compound 15, 3-acetyl-8-bromo-5-chloro-2-((2-methoxyphenyl)sulfinyl)quinolin-4(1H)-one] |
| > 2 µM | > 2 µM | > 2 µM | > 2 µM | > 2 µM | > 2 µM | > 2 µM | > 2 µM | CC(=O)c1c(Sc2ccc(Br)cc2)[nH]c2c(Br)ccc(Cl)c2c1=O [Compound 16, 3-acetyl-8-bromo-2-((4-bromophenyl)thio)-5-chloroquinolin-4(1H)-one] |
| > 2 µM | > 2 µM | > 2 µM | – | > 2 µM | – | – | > 2 µM | CC(=O)c1c([S+]([O-])c2ccc(Br)cc2)[nH]c2c(Br)ccc(Cl)c2c1=O (stereo not drawn) [Compound 17, 3-acetyl-8-bromo-2-((4-bromophenyl)sulfinyl)-5-chloroquinolin-4(1H)-one] |
| > 2 µM | > 2 µM | > 2 µM | > 2 µM | > 2 µM | > 2 µM | > 2 µM | > 2 µM | CSc1c(C(C)=O)c(=O)c2c(Cl)ccc(Br)c2n1C(C)=O [Compound 18, 1,1′-(8-bromo-5-chloro-2-(methylthio)-4-oxoquinoline-1,3(4H)-diyl)bis(ethan-1-one)] |
| > 2 µM | > 2 µM | > 2 µM | > 2 µM | > 2 µM | > 2 µM | > 2 µM | > 2 µM | CC(=O)c1c([S+](C)[O-])n(C(C)=O)c2c(Br)ccc(Cl)c2c1=O (stereo not drawn) [Compound 19, 1,1′-(8-bromo-5-chloro-2-(methylsulfinyl)-4-oxoquinoline-1,3(4H)-diyl)bis(ethan-1-one)] |
| > 2 µM | > 2 µM | > 2 µM | > 2 µM | > 2 µM | > 2 µM | > 2 µM | > 2 µM | CC(=O)c1c([S+]([O-])Cc2ccccc2)n(C(=O)c2ccc(Br)cc2)c2c(Br)ccc(Cl)c2c1=O (stereo not drawn) [Compound 20, 3-acetyl-2-(benzylsulfinyl)-8-bromo-1-(4-bromobenzoyl)-5-chloroquinolin-4(1H)-one] |
| > 2 µM | > 2 µM | > 2 µM | > 2 µM | > 2 µM | > 2 µM | > 2 µM | > 2 µM | CC(=O)c1c(S(C)(=O)=O)n(C(=O)c2ccc(Br)cc2)c2c(Br)ccc(Cl)c2c1=O [Compound 21, 3-acetyl-8-bromo-1-(4-bromobenzoyl)-5-chloro-2-(methylsulfonyl)quinolin-4(1H)-one] |
| > 2 µM | > 2 µM | > 2 µM | > 2 µM | > 2 µM | > 2 µM | > 2 µM | > 2 µM | CC(=O)c1c([S+](C)[O-])n(Cc2ccc(F)c(Cl)c2)c2c(Br)ccc(Cl)c2c1=O (stereo not drawn) [Compound 22, 3-acetyl-8-bromo-5-chloro-1-(3-chloro-4-fluorobenzyl)-2-(methylsulfinyl)quinolin-4(1H)-one] |
| > 2 µM | > 2 µM | > 2 µM | > 2 µM | > 2 µM | > 2 µM | > 2 µM | > 2 µM | CC(=O)c1c(SCc2ccccc2)n(C(=O)c2ccc(Br)cc2)c2c(Br)ccc(Cl)c2c1=O [Compound 23, 3-acetyl-2-(benzylthio)-8-bromo-1-(4-bromobenzoyl)-5-chloroquinolin-4(1H)-one] |
| > 2 µM | > 2 µM | > 2 µM | > 2 µM | > 2 µM | > 2 µM | > 2 µM | > 2 µM | CC(=O)c1c(SC(C)C)[nH]c2c(Br)ccc(Cl)c2c1=O [Compound 24, 3-acetyl-8-bromo-5-chloro-2-(isopropylthio)quinolin-4(1H)-one] |
| > 2 µM | > 2 µM | > 2 µM | > 2 µM | > 2 µM | > 2 µM | > 2 µM | > 2 µM | CC(=O)c1c([S+]([O-])C(C)C)[nH]c2c(Br)ccc(Cl)c2c1=O (stereo not drawn) [Compound 25, 3-acetyl-8-bromo-5-chloro-2-(isopropylsulfinyl)quinolin-4(1H)-one] |
| > 2 µM | 1.6 µM | > 2 µM | – | > 2 µM | – | – | > 2 µM | CC(=O)c1c([S+]([O-])C(C)c2ccccc2)[nH]c2c(Br)ccc(Cl)c2c1=O (stereo not drawn) [Compound 26, 3-acetyl-8-bromo-5-chloro-2-((1-phenylethyl)sulfinyl)quinolin-4(1H)-one] |
| > 2 µM | > 2 µM | > 2 µM | > 2 µM | > 2 µM | > 2 µM | > 2 µM | > 2 µM | CC(=O)c1c(SCc2cccc(C#N)c2)[nH]c2c(Br)ccc(Cl)c2c1=O [Compound 27, 3-(((3-acetyl-8-bromo-5-chloro-4-oxo-1,4-dihydroquinolin-2-yl)thio)methyl)benzonitrile] |
| – | 1.03 µM | 0.82 µM | – | 1.33 µM | – | – | > 2 µM | CC(=O)c1c([S+]([O-])Cc2cccc(C#N)c2)[nH]c2c(Br)ccc(Cl)c2c1=O (stereo not drawn) [Compound 28, 3-(((3-acetyl-8-bromo-5-chloro-4-oxo-1,4-dihydroquinolin-2-yl)sulfinyl)methyl)benzonitrile] |

| SMILES | IC50 [1, 3] | IC50 [1, 4] | IC50 [1, 5] | IC50 [1, 6] | IC50 [1, 7] | IC50 [1, 8] | IC50 [1, 9] | IC50 [2] |
| --- | --- | --- | --- | --- | --- | --- | --- | --- |
| CC(=O)c1c([S+]([O-])Cc2ccccc2)nc2c(Br)ccc(Cl)c2c1O (stereo not drawn) [Compound 4] | 1 µM | 1.91 µM | 1.31 µM | – | > 2 µM | – | – | > 2 µM |
